Tests used:
AChE = settings: at 200 μM; cited from earlier work
BChE = settings: at 200 μM; cited from earlier work
[1] = target: human serum acetylcholinesterase (Homo sapiens, UniProt P22303); experiment: biochemical
human serum acetylcholinesterase, sequence (P22303 32-574 limits assumed): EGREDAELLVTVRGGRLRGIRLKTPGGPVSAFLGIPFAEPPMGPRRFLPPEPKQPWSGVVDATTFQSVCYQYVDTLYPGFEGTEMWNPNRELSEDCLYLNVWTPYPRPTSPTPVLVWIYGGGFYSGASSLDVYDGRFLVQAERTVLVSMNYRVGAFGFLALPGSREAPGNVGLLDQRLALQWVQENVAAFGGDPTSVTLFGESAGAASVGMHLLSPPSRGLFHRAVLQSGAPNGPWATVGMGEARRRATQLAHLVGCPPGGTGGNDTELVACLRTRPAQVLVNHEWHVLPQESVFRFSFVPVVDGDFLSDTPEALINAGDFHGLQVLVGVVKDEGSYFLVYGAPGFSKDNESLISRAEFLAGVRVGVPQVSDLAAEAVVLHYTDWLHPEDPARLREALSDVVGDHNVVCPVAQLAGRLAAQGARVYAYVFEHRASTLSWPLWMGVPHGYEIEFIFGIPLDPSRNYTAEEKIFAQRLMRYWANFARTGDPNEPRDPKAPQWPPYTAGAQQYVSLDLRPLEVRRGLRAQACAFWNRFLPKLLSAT

## COc1ccc2c3c1O[C@H]1C[C@@H](O)C=C[C@@]31CCN(C)C2 [Galantamine]
AChE
  percentage inhibition, AChE: 78.76 ± 0.94%
BChE
  percentage inhibition, BChE: 79.72 ± 0.33%

## COc1c(OC)c(OC)c2c(-c3ccccc3)c(-c3ccccc3)[nH]c2c1CNc1ccccc1 [indole amine 23, 4,5,6-Trimethoxy-2,3-diphenyl-7-phenylaminomethyl-(1H)-indole]
[1]
  IC50: 12.1 µM

## COc1c(OC)c(OC)c2c(-c3ccccc3)c(-c3ccccc3)[nH]c2c1CNc1cccc([N+](=O)[O-])c1 [indole amine 24, 4,5,6-Trimethoxy-7-(3′-nitrophenylaminomethyl)-2,3-diphenyl-(1H)-indole]
[1]
  IC50: 4.66 µM

## COc1c(OC)c(OC)c2c(-c3ccccc3)c(-c3ccccc3)[nH]c2c1CNc1ccc([N+](=O)[O-])cc1 [indole amine 25, 4,5,6-Trimethoxy-7-(4′-nitrophenylaminomethyl)-2,3-diphenyl-(1H)-indole]
[1]
  IC50: 4.28 µM

Source: publication PMC9811652 (RSC Advances, 2023)
